Reference: patent US11865125B2, “APKC inhibitors and methods of treating a neurodegenerative disease or disorder” (UNIVERSITY OF SOUTH FLORIDA, priority 2016, dated 2024)
“Also recorded” adds a separate entry of the source.

How the values were obtained:
phospho-thr-231-tau = phospho-thr-231-tau levels in LA1-5s neuroblastoma cells; format: cell-based, human; conditions: LA1-5s cells
Description: Shown here are Mean±SEM (N=4) values relative to the mean initial basal or insulin-stimulated level of indicated immunoreactive protein/peptide. Asterisks: *, P<0.05; **, P<0.01; ***, P<0.001 (ANOVA).
(§1) Western Analyses. As described, Western analyses were conducted with rabbit antisera or mouse monoclonal antibodies (mMab), using: anti-aPKC (Santa Cruz Biotechnologies, Santa Cruz, CA); anti-phospho-threonine-560/555-PKC-ζ/λ/ι (Invitrogen, Carlsbad, CA); anti-p-serine-256-FoxO1 and anti-FoxO1 (Abnova, Walnut, CA); anti-Akt (mMab), anti-phospho-serine-473-Akt, anti-phospho-serine-9-GSK3P anti-GSK313, anti-phospho-serine-253-FoxO3a, anti-FoxO3a, anti-phospho-serine-256-FoxO1, anti-phospho-serine-193-FoxO4; anti-FoxO1, anti-phospho-serine-2448-mTOR, anti-mTOR, anti-β-amyloid (anti-5-10 kDa-Aβ1-40/42) and anti-amyloid precursor protein (anti-120 kDa-APP) (Cell Signaling Technologies, Danvers, MA); and anti-phospho-serine-202-tau, anti-phospho-threonine-231-tau (Gene Tex, Irvine, CA). Samples from experimental groups were compared on the same blots, and routinely checked with loading controls. Note that: insulin-sensitive 70 kDa aPKC is largely PKC-ζ in mouse brain and orthologous PKC-ι (98% aa homology) in monkey and other primate brains; brain PKC-ζ exists largely as a 50 kDa moiety that, lacking a regulatory domain, is constitutively-active and unresponsive to insulin.

Akt = assay: brain Akt phosphorylation/activity in mice; format: in vivo, mouse
Source text: Mouse Studies. Brain samples were obtained from normal and insulin-resistant mice and monkeys used previously, and includes mice originally used in studies of insulin signaling and resistance in liver: (a) 4-6 month old C57Bl/6 mice used in studies of high-fat-feeding [USF Vivarium] [6]; 4-6 month-old male C57Bl/6 ob/ob and lean ob+ mice (Jackson Labs, Bar Harbor, Maine); and (c) 10-12 month-old C57Bl/6 Het-MλKO mice [USF Vivarium] [8]. […] Where indicated normal mice were given a single SC injection of saline or saline containing 1.5 mg/kg ICAPP to follow time-related alterations in brain signaling factors. Where indicated, mice were treated intraperitoneally (IP) with insulin (1 U/kg body weight) or vehicle 15-min before euthanization by administration of Xylazine/Ketamine, followed by whole body perfusion with phosphate-buffered saline and rapid removal of brain and other tissues.
(§2) Tissue Preparations. As described, mouse brains were hemisected sagittally, and one-half was frozen in liquid N2, stored at −80° C., and samples thereof were homogenized in buffer containing 0.25M sucrose, 20 mM Tris/HCl (pH, 7.5), 2 mmol/l EGTA, 2 mM EDTA, 1 mM phenlysulfonoylfluoride (PMSF), 20 μg/ml leupeptin, 10 μg/ml aprotinin, 2 mM Na4P2O7, 2 mM Na3VO4, 2 mM NaF, and 1 μM microcystin, and then supplemented with 1% TritonX-100, 0.6% Nonidet and 150 mM NaCl.
as §1
Where indicated, mice were randomly treated with insulin (1 unit/kg/bw i.p.) 15 min before being euthanized by administration of xylazine/ketamine, followed by whole-body perfusion with PBS and rapid removal of brain and other tissues.

β-secretase (BACE1) = assay: brain β-secretase activity (BACE1) in mice; format: in vivo, mouse
Source text: Mouse Studies. Brain samples were obtained from normal and insulin-resistant mice and monkeys used previously, and includes mice originally used in studies of insulin signaling and resistance in liver: (a) 4-6 month old C57Bl/6 mice used in studies of high-fat-feeding [USF Vivarium] [6]; 4-6 month-old male C57Bl/6 ob/ob and lean ob+ mice (Jackson Labs, Bar Harbor, Maine); and (c) 10-12 month-old C57Bl/6 Het-MλKO mice [USF Vivarium] [8]. Males and females were comparably present in experimental groups, and sex didn't appreciably alter combined findings. Hepatic alterations, clinical characteristics and ameliorating effects of liver-selective aPKC inhibitors were reported previously. […] Where indicated, Het-MλKO were injected subcutaneously (SC) once daily for 8 days with saline or 1H-imidazole-4-carboxamide,5-amino]-(2,3-dihydroxy-4-[(phosphono-oxy)methyl]cyclopentane-[1R-(1a,2b,3b,4a)] (ICAPP) 0.4 mg/kg body weight) in saline, to inhibit hepatic aPKC, and thus diminish aPKC-dependent expression of hepatic gluconeogenic and lipogenic enzymes, and thereby reduce serum insulin levels to near-normal. Where indicated normal mice were given a single SC injection of saline or saline containing 1.5 mg/kg ICAPP to follow time-related alterations in brain signaling factors. Where indicated, mice were treated intraperitoneally (IP) with insulin (1 U/kg body weight) or vehicle 15-min before euthanization by administration of Xylazine/Ketamine, followed by whole body perfusion with phosphate-buffered saline and rapid removal of brain and other tissues.
as §2
β-Secretase Activity (BACE1; beta-site APP-cleaving enzyme-1). β-Secretase was measured was measured using a kit from Thermo-Fisher.

recombinant PKC-ι = target: T1, recombinant PKC-ι (Homo sapiens, UniProt P41743); conditions: cited from earlier work
T1 sequence (P41743 1-596): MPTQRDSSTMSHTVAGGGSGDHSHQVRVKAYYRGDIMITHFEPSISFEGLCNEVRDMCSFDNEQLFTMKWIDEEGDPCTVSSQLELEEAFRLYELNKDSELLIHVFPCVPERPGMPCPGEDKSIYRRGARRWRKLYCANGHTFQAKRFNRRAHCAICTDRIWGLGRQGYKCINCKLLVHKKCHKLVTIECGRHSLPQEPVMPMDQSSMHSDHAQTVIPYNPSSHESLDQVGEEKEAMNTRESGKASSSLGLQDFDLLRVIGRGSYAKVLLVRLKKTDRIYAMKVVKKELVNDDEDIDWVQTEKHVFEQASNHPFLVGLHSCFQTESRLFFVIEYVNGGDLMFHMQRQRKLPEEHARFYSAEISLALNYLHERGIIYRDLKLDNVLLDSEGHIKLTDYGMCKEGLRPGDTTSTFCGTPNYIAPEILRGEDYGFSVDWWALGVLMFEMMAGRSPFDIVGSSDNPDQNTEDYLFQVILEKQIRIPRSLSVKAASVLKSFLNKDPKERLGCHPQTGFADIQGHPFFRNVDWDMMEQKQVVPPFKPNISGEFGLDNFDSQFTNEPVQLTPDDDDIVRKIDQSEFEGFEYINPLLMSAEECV

[1] = system: conventional PKCs, novel PKCs, AMP-dependent protein kinase and Akt; conditions: cited from earlier work
[2] = Het-MλKO mice, reported previously; cited from earlier work
[3] = normal mice, single s.c. dose of ICAPP 1.5 mg/kg, insulin 1 U/kg i.p. 15 min before killing

NC(=O)c1ncn([C@@H]2C[C@H](COP(=O)(O)O)[C@@H](O)[C@H]2O)c1N [ICAPP]
effect on metformin-induced increase in phospho-thr-231-tau (phospho-thr-231-tau): dose-dependently inhibited | resting/basal brain Akt activity (Akt; Het-MλKO mice, s.c. once daily for 8 days (ICAPP 0.4 mg/kg, ATM 60 mg/kg)): diminished; also recorded: reductions of resting/basal activities of brain Akt and aPKC, comparable to those seen with ATM treatment | acute insulin activation of brain Akt (Akt; Het-MλKO mice, s.c. once daily for 8 days (ICAPP 0.4 mg/kg, ATM 60 mg/kg), insulin 1 U/kg i.p. 15 min): restored ability of insulin to acutely activate Akt; also recorded: insulin was fully able to fully activate Akt | insulin-stimulated increases in brain Akt activity (Akt; [3]): without altering; also recorded: without inhibiting insulin effects on Akt | resting/basal brain β-secretase activity (β-secretase (BACE1); Het-MλKO mice, ICAPP 0.4 mg/kg s.c. once daily for 8 days): reduced resting/basal β-secretase activity to near-normal levels | acute insulin-stimulated increases in brain β-secretase activity (β-secretase (BACE1); Het-MλKO mice, ICAPP 0.4 mg/kg s.c. once daily for 8 days, insulin 1 U/kg i.p. 15 min): fully blocked | insulin-dependent brain β-secretase activity (β-secretase (BACE1); [3]): time-related, well-correlated decreases; also recorded: blocked acute effects of insulin | inhibition of recombinant PKC-ι (recombinant PKC-ι): preferentially inhibit recombinant PKC-ι | IC50 (recombinant PKC-ι; previously seen, stated as similar, read-out: IC50, inhibition of recombinant PKC-λ/ι): 1 to 10 nM | inhibition of conventional PKCs, novel PKCs, AMP-dependent protein kinase and Akt [1]: Neither ICAPP [8] nor ACPD [6,7] inhibit | serum insulin levels / hyperinsulinemia [2]: fully/sufficiently improved; also recorded: reduced serum insulin levels in Het-MλKO mice to normal
